Measured values taken from PMC2010042, “Effects of pretreatment with phenobarbitone and phenytoin on the pharmacokinetics and toxicity of phenytoin on the pharmacokinetics and toxicity of misonidazole in mice” (British Journal of Cancer, 1979).
Structures can show the parent of a compound that is named as a salt.

How the values were obtained:
[1] = preliminary studies in man
hypoxic tumour cells = test system: hypoxic tumour cells; design: method as in Brown et al., 1979; details: at equal tumour concentrations; ref Brown et al., 1979; cited from earlier work
in vivo = details: male, BALB/c, mouse, ip, LD50(7d) (95% confidence limits), MIS single i.p.
body temperature = details: 1 g/kg MIS; all 3 pretreated groups (saline, phenobarbitone, phenytoin)
man = details: ref Dische et al., 1977; Urtasun et al., 1978; cited from earlier work
[2] = Pharmacokinetics of MIS and Ro 05-9963 in plasma/blood, brain and tumour by HPLC after 1 g/kg MIS i.p.; details: for concentrations in whole blood compared with plasma: control studies
BALB/c male mice = details: MIS single i.p. 1.117-2.5 g/kg
[3] = 1 g/kg; ref Brown et al., 1979; cited from earlier work
[4] = design: method as in Adams et al., 1976; details: ref Adams et al., 1976; cited from earlier work
[5] = Pharmacokinetics of MIS and Ro 05-9963 after 1 g/kg MIS i.p. in B10 mice bearing the MC6B tumour; details: enzyme inducers; B10 strain
mice = test system: mice; design: method as in Brown et al., 1979; details: ref Brown et al., 1979; cited from earlier work
[6] = test system: microsomal drug-metabolizing enzymes; test: Pentobarbitone sleeping-time after pretreatment (index of microsomal enzyme induction); format: in vivo, tumour-free BALB/c mice; details: 60 mg/kg pentobarbitone i.p. on Day 9 after pretreatment regime
[7] = Body weight during pretreatment regime
MC6B and EMT6 tumours = test: Tumour volume in pretreated mice; format: in vivo; details: usually not significant (P > 0.05)
[8] = Approximate acute LD50 of single doses of phenobarbitone and phenytoin; details: male, BALB/c, mouse, in vivo
liver weight = test: Liver/body weight ratio after pretreatment; format: in vivo, tumour-free BALB/c mice; details: Day 9 after pretreatment regime
[9] = phenobarbitone or phenytoin pretreatment (Discussion)

COCC(O)Cn1ccnc1[N+](=O)[O-] (stereo not shown) [MIS, 1-(2-nitroimidazol-1-yl)-3-meth-oxypropan-22-ol]
MIS t1/2 and AUC with phenytoin therapy [1]: both reduced | radiosensitizing efficiency of MIS and Ro 05-9963 (hypoxic tumour cells): equally good radiosensitizers | LD50 at 7 days (in vivo; pretreatment phenobarbitone): 1900 mg/kg | LD50 at 7 days (in vivo; pretreatment phenytoin): 1780 mg/kg | LD50 at 7 days (in vivo; pretreatment saline (control)): 1540 mg/kg | change in body temperature after MIS (body temperature): marked decrease in temperature | peripheral neuropathy in man (man): dose-limiting toxicity | reduction of apparent elimination half-life (t1/2) for MIS ([2]; 1 g/kg MIS i.p., phenobarbitone or phenytoin pretreatment vs control, plasma, brain and tumour): 20-67% | decrease of area under the curve (AUC) for MIS ([2]; 1 g/kg MIS i.p., phenobarbitone or phenytoin pretreatment, plasma, brain and tumour): 23-49% | concentrations in whole blood compared with plasma [2]: identical | Kp ([2]; male, BALB/c, mouse, tumour and brain / plasma, ip, 1 g/kg): ~0.5 | effect of pretreatment on peak MIS concentration ([2]; phenobarbitone and phenytoin pretreatment, plasma, brain or tumour): did not alter | decrease of blood (or plasma) MIS AUC [2, 9]: 25- 60% | shortening of apparent t1/2 for MIS elimination from blood or plasma [2, 9]: 35-60% | time of deaths after treatment (BALB/c male mice): 3 to 4 days | t1/2 of MIS after bilateral kidney ligation [3]: prolonged after bilateral kidney ligation

O=[N+]([O-])c1nccn1CC(O)CO (stereo not shown) [Ro 05-9963, 1-(2-nitroimidazol-1-yl)-2,3-propandiol]
radiosensitizing efficiency of MIS and Ro 05-9963 (hypoxic tumour cells): equally good radiosensitizers | lipophilicity compared with MIS [4]: considerably less lipophilic than MIS | concentrations in whole blood compared with plasma [2]: identical | increase of blood (or plasma) AUC for metabolite Ro 05-9963 ([2]; enzyme inducers, BALB/c mice): 10-60% | increase of blood (or plasma) AUC for metabolite Ro 05-9963 [5]: 100% | LD50 compared with MIS (mice): higher LD50 than MIS

CCC1(c2ccccc2)C(=O)NC(=O)NC1=O [phenobarbitone]
pentobarbitone sleeping-time, % of untreated control [6]: 36% | pentobarbitone sleeping-time, mean [6]: 26 min | initial weight loss during pretreatment regime ([7]; normally completely regained by Day 9): up to 10% | tumour volumes lower than the saline controls (MC6B and EMT6 tumours): up to 10%

O=C1NC(=O)C(c2ccccc2)(c2ccccc2)N1 [phenytoin, 5.5-diphenylhydantoin, sodium salt]
LD50 [8]: 200 to 240 mg/kg | pentobarbitone sleeping-time, % of untreated control [6]: 30% | weight loss during pretreatment ([7]; mouse, in vivo): little or no weight loss | liver wt/body wt, % of untreated control (liver weight): 124% | tumour volumes lower than the saline controls (MC6B and EMT6 tumours): up to 10%
